In patent publication US8946302B2, “Selective sigma-1 receptor ligands” (Wisconsin Alumni Research Foundation, priority 2008, dated 2015):

How the values were obtained:
sigma-1 receptor [1] = biological target: T1, sigma-1 receptor (Rattus norvegicus, UniProt Q9R0C9); assay: Protection of [125I]-IACoc photolabeling in rat liver membranes; type: binding
T1 construct: from tissue; host or cells: rat liver membranes
Procedure: (§4) Rat liver membranes (100 μg/lane) were suspended in the presence or absence of the protecting drugs. […] Percent band intensities are shown compared to controls performed in the absence of protecting ligand (−).

sigma-1 receptor [2] = biological target: T1, sigma-1 receptor; assay: Protection of [125I]IAF photolabeling of the sigma-1 receptor in rat liver membranes; type: binding
Procedure: as §4

[3] = tested on: human cardiac Na+ channel hNav1.5; assay: Patch clamp INa in HEK293 cells stably expressing hNav1.5; type: cell-based; conditions: 100 μM, n=3
Procedure: (§1) To evaluate the capacity of DMT to induce physiological responses by binding to sigma receptors, the action of DMT on voltage-activated Na^+ current was examined. […] Application of 100 μM DMT inhibited INa by 62±3% (n=3), which reversed upon DMT removal. With hNav1.5 transiently transfected into COS-7 cells, 100 μM DMT inhibited INa by only 22±4% (n=3), but photolabeling has shown that these cells have much lower levels of endogenous sigma-1 receptor compared to HEK293 cells (26) (FIG. 7b).
(§2) HEK293 cells stably expressing hNav1.5 were provided by Dr. J. C. Makielski at the University of Wisconsin-Madison (32). COS-7 cells were transiently transfected with recombinant cDNA encoding hNav1.5 using Lipofectamine. Both cell types were cultured on glass coverslips at 37° C. in 5% CO2/air atmosphere, and used for electrophysiological recordings within 3-5 days.
(§3) INa was recorded using whole-cell patch clamp at room temperature. All patch clamp solutions used as well as patch clamp methodology and instrumentation details are previously described (26) with the exception of testing INa inhibition with 100 μM DMT.

hNav1.5 = assay: Patch clamp INa in COS-7 cells transiently transfected with hNav1.5; type: cell-based, human; conditions: 100 μM, n=3
Procedure: as §1, §2, §3

[4] = tested on: INa in neonatal mouse cardiac myocytes; assay: Patch clamp INa in neonatal cardiac myocytes from WT and sigma-1 receptor KO mice; type: cell-based; conditions: n=7
Procedure: Neonatal mouse cardiac myocytes were enzymatically isolated and cultured on laminin-coated glass coverslips as previously described (33, 34) with minor changes (26).
as §3

[5] = tested on: WT and sigma-1 receptor knockout mice; assay: Open-field hypermobility assay in WT and sigma-1 receptor KO mice; type: in vivo, mouse; conditions: 2 mg/kg i.p. two hours after pargyline 75 mg/kg i.p.
Procedure: All mice were maintained on a normal light/dark cycle and handled in accordance with Animal Care and Use Guidelines of the University of Wisconsin, Madison. […] Mice were first acclimatized to the experimental room for one hour. WT and KO mice were injected with the monoamine oxidase inhibitor, pargyline (75 mg/kg, i.p.) two hours prior to DMT or vehicle injection(28). […] Each condition represents 8 to 14 mice (n=8-14). […] A computer program was used to quantitate movement and after each experiment, 70% ethanol was used to remove odors from the open-field.

sigma-1 receptor [6] = biological target: sigma-1 receptor (Cavia porcellus, UniProt Q60492); assay: Affinity for the sigma-1 receptor (Table 3); type: binding; design: from tissue
sigma-1 receptor (Cavia porcellus, UniProt Q60492), sequence (Q60492 whole entry): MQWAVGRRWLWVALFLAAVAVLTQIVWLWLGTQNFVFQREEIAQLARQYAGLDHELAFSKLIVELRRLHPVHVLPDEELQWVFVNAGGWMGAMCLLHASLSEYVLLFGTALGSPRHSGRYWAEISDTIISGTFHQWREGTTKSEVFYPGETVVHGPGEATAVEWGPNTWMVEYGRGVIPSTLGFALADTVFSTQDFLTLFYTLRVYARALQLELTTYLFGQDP

T1 sequence (Q9R0C9 whole entry): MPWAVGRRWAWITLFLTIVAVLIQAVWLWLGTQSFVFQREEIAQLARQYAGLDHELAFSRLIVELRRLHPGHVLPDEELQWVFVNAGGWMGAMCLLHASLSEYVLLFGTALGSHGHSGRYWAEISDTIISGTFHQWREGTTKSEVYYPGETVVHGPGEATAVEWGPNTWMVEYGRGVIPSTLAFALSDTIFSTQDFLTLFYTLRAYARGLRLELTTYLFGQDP

CN(C)CCc1c[nH]c2ccccc12 [DMT, 2-(1H-indol-3-yl)-N,N-dimethylethylamine]
protection of [125I]-IACoc photolabeling of the 26 kDa sigma-1 receptor (sigma-1 receptor [1]; 50 μM): 61%
protection of [125I]-IACoc photolabeling of the 26 kDa sigma-1 receptor (sigma-1 receptor [1]; 100 μM): ~100%
protection of [125I]IAF photolabeling of the sigma-1 receptor (sigma-1 receptor [2]; 10 μM): 31%
protection of [125I]IAF photolabeling of the sigma-1 receptor (sigma-1 receptor [2]; 50 μM): 43%
protection of [125I]IAF photolabeling of the sigma-1 receptor (sigma-1 receptor [2]; 100 μM): 69%
inhibition of INa [3]: 62±3%
inhibition of INa (hNav1.5): 22±4%
inhibition at 100 µM ([4]; KO myocytes): 7 ± 2%
inhibition at 100 µM ([4]; WT neonatal cardiac myocytes): 29 ± 3%
distance traveled in open-field assay (hypermobility) ([5]; WT mice): 7025±524.1 cm
distance traveled in open-field assay (hypermobility) ([5]; sigma-1 receptor KO mice): 2328±322.9 cm
Kd (sigma-1 receptor [6]): 14.6 µM
